Test results: US7491836B2, “Non-ionic surfactants for poorly soluble molecules” (AstraZeneca AB, priority 2003, dated 2009)
Values after ≈ are worked out from the molar mass of the structure shown. Where two headings read alike, the source gives them in different places.

Columns and labels:
CACO-2 cells = test: Epithelial cell interaction monitored as transepithelial electrical resistance (TEER); type: cell-based
Method: Possible interaction with epithelial cells in the form of CACO-2 cells monitored as transepitheliar electrical resistance (TEER) was studied for some of the compounds. In short, after an equilibration time of 60 min the buffer solution at the donor side was exchanged with a buffer solution containing a certain concentration of the surfactant and TEER was then measured after 8 hours.

[1] = test system: dog blood erythrocyte suspension; test: Haemolytic activity, static method (erythrocyte suspension incubated with surfactant, haemoglobin analysed); type: cell-based; settings: for Hemolysis: 40 min at 37° C.
Method: A static method for evaluating the haemolytic activity of compounds was used. In short, dog blood is processed to an erythrocyte suspension, which is then incubated (40 min at 37° C.) with varying concentrations of a surfactant. The incubation is terminated by centrifugation after which the plasma, now containing different amounts of haemoglobin, can be removed and analysed. The results obtained for various MePEG- and PEG mono-12-acyloxy-stearate esters compared with a reference substance (Tween 80), are summarized in tables 3-4.

physchem = test: physchem
Method: The solubilization capacity of the compounds of the invention and compounds of prior art for two poorly soluble (i.e. less than sparingly soluble) drug molecules, felodipine and griseofulvin, were tested. […] Sci., 1998, 87(2), 200-8]. The solubilization capacity for each surfactant was determined from the slope of the curve in a graph where the felodipine/griseofulvin concentration was plotted against the surfactant concentration at surfactant concentrations above CMC (critical micellar concentration).

[2] = cited from earlier work

TEER after 8 hours exposure (CACO-2 cells; surfactant conc 0.1 mM)	TEER after 8 hours exposure (CACO-2 cells; surfactant conc 1 mM)	TEER after 8 hours exposure (CACO-2 cells; surfactant conc 10 mM)	TEER after 8 hours exposure (CACO-2 cells; surfactant conc 50 mM)	Molecule	also measured
104%	100%	104%	98%	PEG1500 mono-12-myristoyloxy-stearate	
		96%	99%	MePEG2000 12-palmitoyloxy-stearate	
		98%	96%	MePEG2000 12-stearoyloxy-stearate	
				CCCCCCCC(=O)OC(CCCCCC)CCCCCCCCCCC(=O)OCCOCCOCCOCCOCCOCCOCCOCCOCCOCCOCCOCCOCCO (stereo not shown) [PEG600 mono-12-octanoyloxy-stearate]	Hemolysis ([1]; surfactant conc 0.6 mM): 88%; Hemolysis ([1]; surfactant conc 0.7 mM): 102%
100%	96%	93%	37%	PEG1500 mono-12-lauroyloxy-stearate	change in TEER / interaction with epithelial cells (in words) (CACO-2 cells; after 8 hours): substantial decrease in TEER
105%	104%	95%	108%	PEG1500 mono-12-oleoyloxy-stearate	
		94%	103%	MePEG1200 12-palmitoyloxy-stearate	
				COC1=CC(=O)C[C@@H](C)[C@]12Oc1c(Cl)c(OC)cc(OC)c1C2=O [griseofulvin]	solubility (physchem; water): ~23 µM (≈ 8.11 µg/mL); solubility in water [2]: approximately 8.1 μg/ml
				CCOC(=O)C1=C(C)NC(C)=C(C(=O)OC)C1c1cccc(Cl)c1Cl (stereo not shown) [felodipine]	solubility in water (physchem): 2.1 µM (≈ 0.807 µg/mL); solubility in water [2]: 0.8 µg/mL (≈ 2.08 µM)
				CCCCCCC(O)CCCCCCCCCCC(=O)OCCOCCOCCOCCOCCOCCOCCOCCOCCOCCOCCOCCOC (stereo not shown) [MePEG550 12-hydroxystearate]	haemolysis (in words) ([1]; at 1 mM): profound hemolysis; Hemolysis ([1]; surfactant conc 1.0 mM): 25%; Hemolysis ([1]; surfactant conc 5.0 mM): 86%; Hemolysis ([1]; surfactant conc 10 mM): 79%; concentration causing total haemolysis ([1]; text summary of Tables 3-4): 5000 µM
89%	43%	39%	37%	CCCCCCC(CCCCCCCCCCC(=O)OCCOCCOCCOCCOCCOCCOCCOCCOCCOCCOCCOCCOCCO)OC(=O)CCCCC (stereo not shown) [PEG600 mono-12-hexanoyloxy-stearate]	Hemolysis ([1]; surfactant conc 0.6 mM): 83%; Hemolysis ([1]; surfactant conc 0.7 mM): 92%
98%	105%	103%	101%	PEG1500 mono-12-palmitoyloxy-stearate	
		101%	71%	MePEG1200 12-stearoyloxy-stearate	
98%	104%	103%	108%	PEG1500 mono-12-stearoyloxy-stearate	
